The text below walks through data of ChEMBL document CHEMBL4359915, “Design, synthesis and biological evaluation of novel diazaspiro[4.5]decan-1-one derivatives as potential chitin synthase inhibitors and antifungal agents” (Eur J Med Chem, 2019).

In brackets after ≈: the same amount, converted by molar mass.

One test has as its system Proteus vulgaris. The experiment in a line: Antibacterial activity against Bacillus proteus ATCC 8427 assessed as growth inhibition measured after 24 hrs by two-fold broth dilution method. The test is classed as functional. To be noted: ATCC 8427, 24 h. In general terms: Broth dilution looks for growth in wells or tubes with falling amounts of substance.
Test [1] relates to Aspergillus flavus. The test is described as follows: Antifungal activity against Aspergillus flavus ATCC 16870 assessed as fluconazole MIC after 24 hrs in presence of fluconazole by two-dimensional broth microdilution checkboard assay. The test is classed as functional. The following applies: ATCC 16870, 24 h.
Test [2] concerns Candida albicans. The experiment in a line: Antifungal activity against Candida albicans ATCC 76615 assessed as growth inhibition measured after 24 hrs by two-fold broth dilution method. Format: functional. The following applies: ATCC 76615, 24 h.
Test [3] has as its system Aspergillus flavus. The test is described as follows: Antifungal activity against Aspergillus flavus ATCC 16870 after 24 hrs in presence of fluconazole by two-dimensional broth microdilution checkboard assay. The test is classed as functional. To be noted: ATCC 16870, 24 h.
For test [4], the system named is Cryptococcus neoformans. The test is described as follows: Antifungal activity against Cryptococcus neoformans ATCC 32719 assessed as fluconazole MIC after 24 hrs in presence of fluconazole by two-dimensional broth microdilution checkboard assay. Format: functional. The following applies: ATCC 32719, 24 h.
The subject of test [5] is Candida albicans. The experiment in a line: Antifungal activity against Candida albicans ATCC 76615 assessed as fluconazole MIC after 24 hrs in presence of fluconazole by two-dimensional broth microdilution checkboard assay. Format: functional. The following applies: ATCC 76615, 24 h.
A short description of test [6]: Inhibition of Candida tropicalis ATCC 750 chitin synthase using UDP-GlcNAc as substrate.
Test [7] concerns Staphylococcus aureus. The experiment in a line: Antibacterial activity against methicillin-resistant Staphylococcus aureus N315 assessed as growth inhibition measured after 24 hrs by two-fold broth dilution method. Format: functional. To be noted: N315, 24 h.
Test [8] has as its system Cryptococcus neoformans. The test is described as follows: Antifungal activity against Cryptococcus neoformans ATCC 32719 assessed as fractional inhibitory concentration index after 24 hrs in presence of fluconazole by two-dimensional broth microdilution checkboard assay. Format: functional.
For test [9], the system named is Candida albicans. The experiment in a line: Antifungal activity against Candida albicans ATCC 76615 after 24 hrs in presence of fluconazole by two-dimensional broth microdilution checkboard assay. To be noted: ATCC 76615, 24 h. The test is classed as functional.
Another test relates to Pseudomonas aeruginosa. The test is described as follows: Antibacterial activity against Pseudomonas aeruginosa ATCC 9027 assessed as growth inhibition measured after 24 hrs by two-fold broth dilution method. The test is classed as functional. The following applies: ATCC 9027, 24 h.
Test [10] concerns Candida albicans. The experiment in a line: Antifungal activity against Candida albicans ATCC 76615 assessed as fractional inhibitory concentration index after 24 hrs in presence of fluconazole by two-dimensional broth microdilution checkboard assay. Format: functional.
Test [11] relates to Cryptococcus neoformans. The test is described as follows: Antifungal activity against Cryptococcus neoformans ATCC 32719 after 24 hrs in presence of fluconazole by two-dimensional broth microdilution checkboard assay. The test is classed as functional. To be noted: ATCC 32719, 24 h.
For test [12], the system named is Aspergillus fumigatus. The test is described as follows: Antifungal activity against Aspergillus fumigatus GIMCC 3.19 assessed as fluconazole MIC after 24 hrs in presence of fluconazole by two-dimensional broth microdilution checkboard assay. The following applies: GIMCC 3.19, 24 h. The test is classed as functional.
The test system of the next test is Escherichia coli. The experiment in a line: Antibacterial activity against Escherichia coli JM 109 assessed as growth inhibition measured after 24 hrs by two-fold broth dilution method. To be noted: JM 109, 24 h. The test is classed as functional.
For test [13], the system named is Aspergillus fumigatus. The experiment in a line: Antifungal activity against Aspergillus fumigatus GIMCC 3.19 assessed as fractional inhibitory concentration index after 24 hrs in presence of fluconazole by two-dimensional broth microdilution checkboard assay. The test is classed as functional.
The test system of test [14] is Staphylococcus aureus. The test is described as follows: Antibacterial activity against Staphylococcus aureus ATCC 25923 assessed as growth inhibition measured after 24 hrs by two-fold broth dilution method. The test is classed as functional. To be noted: ATCC 25923, 24 h.
The subject of test [15] is Aspergillus flavus. The experiment in a line: Antifungal activity against Aspergillus flavus ATCC 16870 assessed as fractional inhibitory concentration index after 24 hrs in presence of fluconazole by two-dimensional broth microdilution checkboard assay. The test is classed as functional.
Test [16] has as its system Aspergillus fumigatus. The test is described as follows: Antifungal activity against Aspergillus fumigatus GIMCC 3.19 after 24 hrs in presence of fluconazole by two-dimensional broth microdilution checkboard assay. The test is classed as functional. The following applies: GIMCC 3.19, 24 h.
Test [17] concerns Aspergillus fumigatus. The experiment in a line: Antifungal activity against Aspergillus fumigatus GIMCC 3.19 assessed as growth inhibition measured after 24 hrs by two-fold broth dilution method. The following applies: GIMCC 3.19, 24 h. The test is classed as functional.
Test [18] has as its system Aspergillus flavus. The experiment in a line: Antifungal activity against Aspergillus flavus ATCC 16870 assessed as growth inhibition measured after 24 hrs by two-fold broth dilution method. The test is classed as functional. The following applies: ATCC 16870, 24 h.
In test [19] the test system is Cryptococcus neoformans. The test is described as follows: Antifungal activity against Cryptococcus neoformans ATCC 32719 assessed as growth inhibition measured after 24 hrs by two-fold broth dilution method. The test is classed as functional. The following applies: ATCC 32719, 24 h.
Another test relates to Bacillus spizizenii. The test is described as follows: Antibacterial activity against Bacillus subtilis ATCC 6633 assessed as growth inhibition measured after 24 hrs by two-fold broth dilution method. The test is classed as functional. To be noted: ATCC 6633, 24 h.
Test [20] relates to Candida albicans. The experiment in a line: Antifungal activity against Candida albicans ATCC 90023 assessed as growth inhibition measured after 24 hrs by two-fold broth dilution method. The test is classed as functional. The following applies: ATCC 90023, 24 h.
A further test deals with Candida tropicalis. The experiment in a line: Inhibition of Candida tropicalis ATCC 750 chitin synthase at 300 ug/ml using UDP-GlcNAc as substrate relative to control.
Test [21] can be described thus: Inhibition of Saccharomyces cerevisiae CGMCC 2.145 chitin synthase using GlcNAc and UDP-GlcNAc as substrate incubated for 60 mins by microplate reader analysis.

What is called MIC is the least concentration at which growth counts as inhibited. As usually defined, the IC50 is the concentration needed to halve the response being measured. As usually defined, the inhibition is the change of the read-out against control, counted positive when it falls. Low values mean little suppression, high ones strong suppression.

Take `O=C(Nc1ccc(F)c(Cl)c1)[C@H](O)[C@@H](O)C(=O)N1CCC2(CCNC2=O)CC1`: the MIC with Proteus vulgaris worked out at 310 µM (≈ 128 µg/mL); in the test on Aspergillus flavus [1], 104 µM; with Candida albicans [2] it was 309 µM; in the test with Aspergillus flavus [3] it was 77 µM; with Cryptococcus neoformans [4], 104 µM; in the test with Candida albicans [5], 52 µM. In addition, the MIC was 150 µM (≈ 62.1 µg/mL) in the test with Staphylococcus aureus [7]; 77 µM in the test on Candida albicans [9]; 620 µM (≈ 257 µg/mL) with Pseudomonas aeruginosa; 77 µM in the test with Cryptococcus neoformans [11]; 52 µM in the test with Aspergillus fumigatus [12]; 310 µM (≈ 128 µg/mL) with Escherichia coli. The MIC amounted to 310 µM (≈ 128 µg/mL) in the test on Staphylococcus aureus [14]; 155 µM in the test on Aspergillus fumigatus [16]; 155 µM in the test on Aspergillus fumigatus [17]; 155 µM with Aspergillus flavus [18]; 309 µM with Cryptococcus neoformans [19]; 620 µM (≈ 257 µg/mL) with Bacillus spizizenii. The MIC in the test on Candida albicans [20] came to 150 µM (≈ 62.1 µg/mL). Moreover, half-maximal inhibition in test [6] (IC50) was put at 220 µM. The “fractional inhibitory concentration index (FICI)” value with Cryptococcus neoformans [8] is on record as 2.3; in the test with Candida albicans [10] it was 1.3; in the test on Aspergillus fumigatus [13] it was 1.5; in the test on Aspergillus flavus [15], 1. The molecule also returned an inhibition in the test on Candida tropicalis of 70.6%.
`COc1ccc(N2CCN(C(=O)[C@H](O)[C@@H](O)C(=O)Nc3c(O)c4cc(O)ccc4oc3=O)CC2)cc1`: the minimum inhibitory concentration (MIC) in the test on Candida albicans [2], in the test on Aspergillus fumigatus [17], in the test with Aspergillus flavus [18] and with Cryptococcus neoformans [19] was 16 to 64 µg/mL in each case. In [21], the IC50 was 100 µM.
